Source: patent US20090221530A1, “Relaxase Modulators and Methods of Using Same” (priority 2005, published 2009)
In brackets after ≈: the same amount, converted by molar mass. Like-named read-outs stand apart in the source and are kept apart here.

Columns and labels:
Assay type in all cases: cell-based, E. coli
F+ or F− cells = assay: 24 hr. MIC bounds (turbid/clear wells); conditions: 8x serial dilutions, bounds identical for F+ or F− cells; for MIC: Escherichia coli
transconjugants = assay: microbe, parasite or virus in culture; conditions: for Selectivities by EC50, Donors: listed as vs. transconjugants relative to donors
Text: (§1) A 96-well fluorescence-based assay using oxygen biosensor plates (Becton Dickinson, Franklin Lakes, N.J., U.S.A.) was employed to monitor bacterial cell survival. FIG. 7 schematically illustrates the assay mechanism of action. […] In the absence of viable bacteria, however, no fluorescence emission is detected because the fluorophore is quenched by free oxygen. The assay can further be utilized to measure conjugative DNA transfer.
(§2) Relaxase-dependent cell survival was examined by placing cultures of F+/TraI+ E. coli cells (with antibiotic resistance, e.g., Ab^r1, on a non-conjugative plasmid) within wells and exposing them to putative inhibitory compounds. […] Negative controls for this assay can be F− (Ab^r2) cells and F+ cells (Ab^r1) containing either no F plasmid relaxase (TraI) gene, or a TraI harboring catalytic tyrosine to phenylalanine mutations; in both cases, these control cells should be resistant to relaxase-dependent cell toxicity. […] Fluorescence can be measured using a PHERASTAR™ fluorescence plate reader (BMG LABTECH, Offenburg, Germany) over 8 hours time.

F+ donor cells = assay: microbe, parasite or virus in culture; conditions: for EC50 / 100 minute EC50: vs. F+ donor cells; for EC50: read-out: 100 minute EC50; for Selectivities by EC50, Transconj.: listed as vs. F+ donor cells relative to transconjugants
Text: as §1, §2

F− recipient cells = assay: microbe, parasite or virus in culture; conditions: for EC50 / 100 minute EC50: vs. F− recipient cells; for EC50: read-out: 100 minute EC50; for Selectivities by EC50, Donors: listed as vs. F− recipient cells relative to donors; for Selectivities by EC50, Transconj.: listed as vs. F− recipient cells relative to transconjugants
Text: as §1, §2

[1] = clear wells after 24 hr. incubation, read-out: 24 hr. MIC bounds, upper
[2] = turbid wells after 24 hr. incubation, read-out: 24 hr. MIC bounds, lower
[3] = Escherichia coli, 100 min, read-out: 100 minute EC50, vs. transconjugants, first EC50 block, mass concentration
[4] = Escherichia coli, 100 min, read-out: 100 minute EC50, vs. transconjugants, second block
[5] = Escherichia coli, 100 min, read-out: 100 minute EC50, vs. transconjugants, second block, mass concentration
[6] = Escherichia coli, 100 min, first EC50 block, mass concentration
[7] = Escherichia coli, 100 min, second block, mass concentration
[8] = Escherichia coli, 100 min, second block
[9] = Escherichia coli, 100 min, first EC50 block
[10] = clear wells after 24 hr. incubation
[11] = turbid wells after 24 hr. incubation
[12] = vs. transconjugants, first EC50 block, mass concentration
[13] = vs. transconjugants, first EC50 block, read-out: 100 minute EC50
[14] = vs. transconjugants, second block, mass concentration
[15] = vs. transconjugants, second block, read-out: 100 minute EC50
[16] = first EC50 block, mass concentration
[17] = second block, mass concentration

Work on `O=P(O)(O)C(Cl)(Cl)P(=O)(O)O` [Clodronate, reference compound] yielded an MIC (F+ or F− cells; [1]) of 100 mM (≈ 24500 µg/mL), an MIC (F+ or F− cells; [2]) of 12.5 mM (≈ 3060 µg/mL) and an EC50 (transconjugants; Escherichia coli, 100 min, read-out: 100 minute EC50, vs. transconjugants, first EC50 block) of 38 µM. It also gave an EC50 (transconjugants; [3]) of 9 µg/mL, an EC50 (transconjugants; [4]) of 5000 µM and an EC50 (transconjugants; [5]) of 1000 µg/mL. The “Selectivities by EC50, Donors” value (transconjugants; first EC50 block) was 9.2E+00, the “Selectivities by EC50, Donors” value (transconjugants; second block) was 1.6E−01 and the EC50 (F+ donor cells; [6]) was 1 µg/mL. The EC50 (F+ donor cells; [7]) was 7000 µg/mL, the EC50 (F+ donor cells; [8]) was 30000 µM and the “Selectivities by EC50, Transconj.” value (F+ donor cells; first EC50 block) was 1.1E−01. For the same molecule, the “Selectivities by EC50, Transconj.” value (F+ donor cells; second block) was 6.1E+00, the EC50 (F− recipient cells; [6]) was 365 µg/mL and the EC50 (F− recipient cells; [9]) was 1000 µM. The EC50 (F− recipient cells; [7]) was greater than 24000 µg/mL, the EC50 (F− recipient cells; [8]) was greater than 100000 µM and the “Selectivities by EC50, Donors” value (F− recipient cells; first EC50 block) was 3.6E+02. The “Selectivities by EC50, Transconj.” value (F− recipient cells; first EC50 block) was 3.9E+01.

In the case of Methylenediphosphonate, the “24 hr. MIC bounds, upper” value (F+ or F− cells; [10]) is reported as 12.5 mM, the “24 hr. MIC bounds, lower” value (F+ or F− cells; [11]) is reported as 1.56 mM and the “Selectivities by EC50, Donors” value (transconjugants; first EC50 block) is reported as 1.1E−02. For the same molecule, the “Selectivities by EC50, Donors” value (transconjugants; second block) was 5.5E−02, the “100 minute EC50” value (transconjugants; [12]) was 0.017 µg/mL and the EC50 (transconjugants; [13]) was 0.096 ± 0.0123 µM. The “100 minute EC50” value (transconjugants; [14]) was 205 µg/mL, the EC50 (transconjugants; [15]) was 1000 µM and the “Selectivities by EC50, Transconj.” value (F+ donor cells; first EC50 block) was 8.8E+01. For the same molecule, the “Selectivities by EC50, Transconj.” value (F+ donor cells; second block) was 1.8E+01, the “100 minute EC50” value (F+ donor cells; [16]) was 1 µg/mL and the EC50 (F+ donor cells; first EC50 block) was 8 µM. For the same molecule, the “100 minute EC50” value (F+ donor cells; [17]) was 4000 µg/mL, the EC50 (F+ donor cells; second block) was 21000 µM and the “Selectivities by EC50, Donors” value (F− recipient cells; first EC50 block) was 7.8E+01. For the same molecule, the “Selectivities by EC50, Donors” value (F− recipient cells; second block) was 1.9E+00, the “Selectivities by EC50, Transconj.” value (F− recipient cells; first EC50 block) was 6.9E+03 and the “Selectivities by EC50, Transconj.” value (F− recipient cells; second block) was 3.5E+01. For the same molecule, the “100 minute EC50” value (F− recipient cells; [16]) was 117 µg/mL, the EC50 (F− recipient cells; first EC50 block) was 667 ± 0.1 µM and the “100 minute EC50” value (F− recipient cells; [17]) was 7000 µg/mL. For the same molecule, the EC50 (F− recipient cells; second block) was 41000 µM.

With `O=P(O)(O)CNCP(=O)(O)O` [Iminobis(methylphosphonate)] the “24 hr. MIC bounds, upper” value (F+ or F− cells; [10]) was 10 mM, the “24 hr. MIC bounds, lower” value (F+ or F− cells; [11]) was 1.25 mM and the “Selectivities by EC50, Donors” value (transconjugants; first EC50 block) was 1.2E+02. For the same molecule, the “100 minute EC50” value (transconjugants; [12]) was 0.253 µg/mL, the EC50 (transconjugants; [13]) was 1 µM and the “100 minute EC50” value (transconjugants; [14]) was 2000 µg/mL. The EC50 (transconjugants; [15]) was 8000 ± 500 µM, the “Selectivities by EC50, Transconj.” value (F+ donor cells; first EC50 block) was 8.4E−03 and the “100 minute EC50” value (F+ donor cells; [16]) was 0.002 µg/mL. The EC50 (F+ donor cells; first EC50 block) was 0.01 µM, the “100 minute EC50” value (F+ donor cells; [17]) was greater than 2000 µg/mL and the EC50 (F+ donor cells; second block) was greater than 10000 µM. The “Selectivities by EC50, Donors” value (F− recipient cells; first EC50 block) was 4.8E+05, the “Selectivities by EC50, Transconj.” value (F− recipient cells; first EC50 block) was 4.0E+03 and the “100 minute EC50” value (F− recipient cells; [16]) was 1000 µg/mL. The EC50 (F− recipient cells; first EC50 block) was 5000 ± 3300 µM, the “100 minute EC50” value (F− recipient cells; [17]) was greater than 2000 µg/mL and the EC50 (F− recipient cells; second block) was greater than 10000 µM.

Molecule `CC(O)(P(=O)(O)O)P(=O)(O)O` [Etidronate, reference compound] has an MIC (F+ or F− cells; [1]) of 12.5 mM (≈ 2580 µg/mL), an MIC (F+ or F− cells; [2]) of 1.56 mM (≈ 321 µg/mL) and an EC50 (transconjugants; [3]) of 0.001 µg/mL. The EC50 (transconjugants; [4]) was 1000 µM, the EC50 (transconjugants; [5]) was 210 µg/mL and the “Selectivities by EC50, Donors” value (transconjugants; first EC50 block) was 7.3E−01. For the same molecule, the “Selectivities by EC50, Donors” value (transconjugants; second block) was 5.1E−02, the EC50 (F+ donor cells; [6]) was 0.002 µg/mL and the EC50 (F+ donor cells; [9]) was 0.008 ± 0.0002 µM. The EC50 (F+ donor cells; [7]) was 4000 µg/mL, the EC50 (F+ donor cells; [8]) was 20000 µM and the “Selectivities by EC50, Transconj.” value (F+ donor cells; first EC50 block) was 1.4E+00. The “Selectivities by EC50, Transconj.” value (F+ donor cells; second block) was 2.0E+01, the EC50 (F− recipient cells; [6]) was 67 µg/mL and the EC50 (F− recipient cells; [9]) was 327 µM. For the same molecule, the EC50 (F− recipient cells; [7]) was 9000 µg/mL, the EC50 (F− recipient cells; [8]) was 42000 µM and the “Selectivities by EC50, Donors” value (F− recipient cells; first EC50 block) was 4.3E+04. For the same molecule, the “Selectivities by EC50, Donors” value (F− recipient cells; second block) was 2.1E+00, the “Selectivities by EC50, Transconj.” value (F− recipient cells; first EC50 block) was 5.9E+04 and the “Selectivities by EC50, Transconj.” value (F− recipient cells; second block) was 4.1E+01.

`COP(=O)(OC)c1ccccc1P(=O)(OC)OC` [1,2-Bis(dimethoxyphosphoryl)benzene, 1,2-bis(dimethoxyphosphoryl)benzene] was tested, and the “24 hr. MIC bounds, upper” value (F+ or F− cells; [10]) was 100 mM, the “24 hr. MIC bounds, lower” value (F+ or F− cells; [11]) was 12.5 mM and the “Selectivities by EC50, Donors” value (transconjugants; first EC50 block) was 2.1E+02. The “100 minute EC50” value (transconjugants; [12]) was 4 µg/mL, the EC50 (transconjugants; [13]) was 14 ± 0.3 µM and the “100 minute EC50” value (transconjugants; [14]) was greater than 29000 µg/mL. The EC50 (transconjugants; [15]) was greater than 100000 µM, the “Selectivities by EC50, Transconj.” value (F+ donor cells; first EC50 block) was 4.8E−03 and the “100 minute EC50” value (F+ donor cells; [16]) was 0.02 µg/mL. The EC50 (F+ donor cells; first EC50 block) was 0.068 µM, the “100 minute EC50” value (F+ donor cells; [17]) was greater than 29000 µg/mL and the EC50 (F+ donor cells; second block) was greater than 100000 µM. For the same molecule, the “Selectivities by EC50, Donors” value (F− recipient cells; first EC50 block) was 3.3E+05, the “Selectivities by EC50, Transconj.” value (F− recipient cells; first EC50 block) was 1.6E+03 and the “100 minute EC50” value (F− recipient cells; [16]) was 7000 µg/mL. For the same molecule, the EC50 (F− recipient cells; first EC50 block) was 22000 µM, the “100 minute EC50” value (F− recipient cells; [17]) was greater than 29000 µg/mL and the EC50 (F− recipient cells; second block) was greater than 100000 µM.
